Experiment [1] deals with Adenosine receptor A2a (Homo sapiens) (UniProt P29274). Briefly: Positive allosteric modulation of A2A adenosine receptor (unknown origin).
Experiment [2] has the same target. Briefly: Antagonist activity at A2A adenosine receptor (unknown origin).
Experiment [3] shares this target. Briefly: Negative allosteric modulation of A2A adenosine receptor (unknown origin).
The target is the same in experiment [4]. In words: Binding affinity to A2A adenosine receptor (unknown origin).

Results on five compounds are retold here after ChEMBL document CHEMBL2346579, “Structure-based approaches to ligands for G-protein-coupled adenosine and P2Y receptors, from small molecules to nanoconjugates” (J Med Chem, 2013).

Sequence of Adenosine receptor A2a (Homo sapiens) (P29274 whole entry): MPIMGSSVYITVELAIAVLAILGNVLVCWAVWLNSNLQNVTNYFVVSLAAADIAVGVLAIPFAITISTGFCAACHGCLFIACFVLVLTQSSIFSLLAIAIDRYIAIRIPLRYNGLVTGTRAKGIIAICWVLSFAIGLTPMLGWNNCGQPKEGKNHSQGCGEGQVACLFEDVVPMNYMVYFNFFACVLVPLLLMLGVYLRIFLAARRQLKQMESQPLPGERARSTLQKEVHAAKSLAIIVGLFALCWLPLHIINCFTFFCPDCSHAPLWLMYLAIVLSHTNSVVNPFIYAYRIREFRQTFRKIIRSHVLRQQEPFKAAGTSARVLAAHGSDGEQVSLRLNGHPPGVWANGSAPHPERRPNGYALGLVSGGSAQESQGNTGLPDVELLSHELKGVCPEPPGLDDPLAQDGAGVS

`O=C(O)CCN1CCCc2ccccc21` showed an Activity in experiment [1] of 2 mM.
`Cc1cc(C)nc(NC(=N)NCCc2c[nH]c3ccc(F)cc23)n1` registered an Activity in experiment [2] of 200 nM.
As to `Oc1cccc(Nc2ccccc2)c1`, the Activity in experiment [3] was 2 mM.
In experiment [4], `Nc1nc(-c2ccc(F)cc2)ns1` had an Activity of 70 nM.
In the case of `Nc1nnc(-c2cc(C(F)(F)F)nc(C(F)(F)F)c2)c(-c2ccccc2)n1`, the Activity in experiment [2] was 30 nM.
